Where a name gives a salt, the structure may show the parent alone.
Target: T1, succinate dehydrogenase (Homo sapiens, UniProt P31040)
T1 construct: Fibroblasts [0.75 m Val/I]; endogenous in cells
Assay: Stimulating influence of fumaric acid derivatives on the enzyme activity of succinate dehydrogenase in fibroblasts
Type: cell-based
Details: Fibroblasts [0.75 m Val/I]
Excerpt: Succinate dehydrogenase is part of the mitochondrial membrane and catalyses the […] of succinic acid to fumaric acid within the citrate cycle. Hydrogen is passed to the respiratory chain via the electron transfer flavoprotein. Thus, the activity of succinate dehydrogenase may influence the electron flow of the electron transport chain. The latter, in turn, is linked to the process of oxidative phosphorylation, the malfunction of which is considered a cause for mitochondrial diseases. Consequently, the activity of succinate dehydrogenase may also have an effect on oxidative phosphorylation.

T1 sequence (P31040 43-664): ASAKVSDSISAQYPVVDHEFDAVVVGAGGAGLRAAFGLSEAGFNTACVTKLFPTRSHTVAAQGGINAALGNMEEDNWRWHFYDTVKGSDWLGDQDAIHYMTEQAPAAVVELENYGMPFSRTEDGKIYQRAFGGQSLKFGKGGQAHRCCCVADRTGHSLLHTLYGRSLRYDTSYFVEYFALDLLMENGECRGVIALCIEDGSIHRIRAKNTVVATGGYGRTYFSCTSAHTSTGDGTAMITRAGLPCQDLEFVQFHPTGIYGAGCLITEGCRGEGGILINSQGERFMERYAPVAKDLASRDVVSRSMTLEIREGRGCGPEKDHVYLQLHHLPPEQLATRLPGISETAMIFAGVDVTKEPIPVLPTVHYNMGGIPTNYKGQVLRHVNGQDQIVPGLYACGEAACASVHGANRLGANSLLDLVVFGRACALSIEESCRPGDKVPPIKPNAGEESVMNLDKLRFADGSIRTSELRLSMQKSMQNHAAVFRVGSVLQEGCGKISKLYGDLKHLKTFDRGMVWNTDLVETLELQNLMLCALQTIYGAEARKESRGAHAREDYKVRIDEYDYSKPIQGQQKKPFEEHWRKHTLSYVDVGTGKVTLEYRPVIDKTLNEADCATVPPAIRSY
T1 sequence (P21912 29-280 partner): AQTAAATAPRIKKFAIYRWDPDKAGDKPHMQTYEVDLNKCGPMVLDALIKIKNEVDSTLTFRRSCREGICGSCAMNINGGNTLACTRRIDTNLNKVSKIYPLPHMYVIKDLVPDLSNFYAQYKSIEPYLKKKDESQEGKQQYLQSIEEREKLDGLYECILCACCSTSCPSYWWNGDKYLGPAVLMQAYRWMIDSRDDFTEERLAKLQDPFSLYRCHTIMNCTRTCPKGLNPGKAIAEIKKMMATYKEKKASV
T1 sequence (Q99643 30-169 partner): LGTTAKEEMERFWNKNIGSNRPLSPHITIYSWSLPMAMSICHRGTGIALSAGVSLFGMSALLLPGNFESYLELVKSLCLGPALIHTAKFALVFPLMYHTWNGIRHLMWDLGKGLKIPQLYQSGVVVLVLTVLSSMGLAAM
T1 sequence (O14521 57-159 partner): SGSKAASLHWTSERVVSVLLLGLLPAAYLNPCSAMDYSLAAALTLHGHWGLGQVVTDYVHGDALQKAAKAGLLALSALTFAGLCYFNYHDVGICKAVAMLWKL

Row | SMILES | evaluation of the stimulating influence on the enzyme activity of succinate dehydrogenase (grade in words) | stimulation of the enzyme activity of succinate dehydrogenase (percent in brackets)
1 | CCOC(=O)/C=C/C(=O)O [Monoethyl fumarate] | weak | 
2 | COC(=O)/C=C/C(=O)OC [Dimethyl fumarate] | strong | 838%
3 | CCOC(=O)/C=C/C(=O)[O-].[Ca+] [Calcium monoethyl fumarate] | medium | 
4 | CCOC(=O)/C=C/C(=O)[O-].[Zn+] [Zinc monoethyl fumarate] | strong | 107%
5 | CCOC(=O)/C=C/C(=O)[O-].[Mg+] [Magnesium monoethyl fumarate] | weak | 
